Values after ≈ are worked out from the molar mass of the structure shown. A value given as a limit tells only on which side of the number the result lay.

The conditions of the data set: buffer; pH 7.4; 200.0 µM.
For the compound `CCN(Cc1cc(=O)[nH]c2ccccc12)C(=O)c1ccc(C)cc1`, the solubility (kinetic) was determined as 0.0413 mg/mL (≈ 129 µM).

Compound `Cc1nc2ccccc2nc1OCC(=O)Nc1ccc(F)cc1` displayed a solubility (kinetic) of 0.033 mg/mL (≈ 106 µM).

As for `CN(c1ccccc1)c1nc(N)c([N+](=O)[O-])c(N2CCCC2)n1`, the solubility (kinetic) is 0.0209 mg/mL (≈ 66.5 µM).

Consider `Cc1ccc(OC(C)C(=O)Nc2ncc(Cl)cc2Cl)c([N+](=O)[O-])n1` (configuration not stated), for which the kinetic solubility worked out at 0.0089 mg/mL (≈ 24 µM).

`COc1ccccc1CC(=O)Nc1ccc2c(c1)OC1(CCCC1)O2` gave a solubility (kinetic) of 0.0357 mg/mL (≈ 105 µM).

With `O=C(Nc1nc2ccc(F)cc2s1)c1cccs1`, the solubility (kinetic) was found to be 0.0011 mg/mL (≈ 3.95 µM).

`O=C(NCCCn1ccnc1)c1ccc(Br)s1`: the solubility (kinetic) turned out to be 0.0469 mg/mL (≈ 149 µM).

The compound `CN(C)C(=O)c1cc(C(=O)c2ccc(F)cc2F)c[nH]1` registered a kinetic solubility greater than 0.0417 mg/mL.

Regarding `Cc1cc(O)cc(=O)n1C`, the kinetic solubility was greater than 0.0209 mg/mL.

`CN(Cc1ccccc1)C(=O)c1cccnc1` showed a kinetic solubility greater than 0.0339 mg/mL.

The compound `CCOC(=O)N1CCN(CC(=O)Nc2sccc2C#N)CC1` returned a solubility (kinetic) greater than 0.0484 mg/mL.

In turn, `CNC(=O)COC(=O)c1c2c(nc3ccccc13)CCC2` returned a kinetic solubility of 0.0391 mg/mL (≈ 138 µM).

In turn, `Cc1csc(=O)n1CC(=O)Nc1ccc(Cl)cc1F` showed a solubility (kinetic) of 0.009 mg/mL (≈ 29.9 µM).

Consider `Cc1cc(=O)cc(C)n1-c1ccccc1Br`, for which the solubility (kinetic) worked out at 0.0398 mg/mL (≈ 143 µM).

As for `CC(=O)CSc1nnc(-c2ccco2)n1-c1ccccc1`, the kinetic solubility is greater than 0.0449 mg/mL.

For the compound `C(=N\N1CCN(c2ccccn2)CC1)/c1ccccn1`, the solubility (kinetic) was greater than 0.0401 mg/mL.

As for `COC(=O)c1ccccc1NC(=O)Nc1cc(C(C)(C)C)on1`, the kinetic solubility was determined as 0.0161 mg/mL (≈ 50.7 µM).

The compound `COCCCNC(=O)c1ccc(CN2CCc3ccccc3C2)cc1` came in with a solubility (kinetic) greater than 0.0508 mg/mL.

The compound `CC(C)CNC(=O)COC(=O)C1c2ccccc2Oc2ccccc21` displayed a kinetic solubility of 0.0414 mg/mL (≈ 122 µM).

For `O=C(NC1CCCc2ccccc21)c1ccccc1Cl` (configuration not stated), the kinetic solubility came to 0.0396 mg/mL (≈ 139 µM).

Turning to `CCc1ccc(CN(C)C(C)C(=O)NCc2ccccc2)cc1` (configuration not stated), the solubility (kinetic) was 0.0365 mg/mL (≈ 118 µM).

`Cl.O=C(CN1CCOCC1)NCc1ccc(F)cc1` registered a solubility (kinetic) greater than 0.0433 mg/mL.

`CCOC(=O)Cn1cnc2scc(-c3ccccc3)c2c1=O` showed a solubility (kinetic) greater than 0.0472 mg/mL.

As for `CCOC(=O)C(=CNc1cc(OC)ccc1-n1cccc1)C(=O)OCC`, the solubility (kinetic) stood at 0.001 mg/mL (≈ 2.79 µM).

With `O=C(NCCc1ccc([N+](=O)[O-])cc1)c1ccccc1`, the solubility (kinetic) came out at 0.0142 mg/mL (≈ 52.5 µM).

As to `CC1(C(=O)NCc2ccc(F)cc2)Oc2ccccc2NC1=O` (configuration not stated), the kinetic solubility is greater than 0.0471 mg/mL.

The compound `O=c1[nH]c(=S)n(-c2ccccc2F)c(O)c1C=NCCN1CCNCC1` returned a kinetic solubility of 0.0553 mg/mL (≈ 147 µM).

With `O=C(CSc1ccc([N+](=O)[O-])cn1)Nc1ccc(N2CCOCC2)cc1`, the solubility (kinetic) came to 0.0009 mg/mL (≈ 2.4 µM).

The compound `O=C(COC(=O)c1c(F)cccc1Cl)NCC1CCCCC1` yielded a solubility (kinetic) of 0.0409 mg/mL (≈ 125 µM).

On to `O=C(COC(=O)CCC(=O)c1ccc(F)cc1)NCc1ccc(Cl)cc1`, for which the kinetic solubility amounted to 0.0106 mg/mL (≈ 28.1 µM).

`Cc1cccc(OCCSc2nc(N)cc(N)n2)c1` showed a kinetic solubility greater than 0.0415 mg/mL.

`Nc1nc(NC2CCCCC2)nc(NCCO)c1[N+](=O)[O-]` displayed a kinetic solubility of 0.0381 mg/mL (≈ 129 µM).

As to `COc1ccc2c(c1OC)C(=O)N(c1ccc(F)cc1)C2`, the solubility (kinetic) is 0.0038 mg/mL (≈ 13.2 µM).

For the compound `CC(C)c1ccc(N=Cc2c(O)c3ccccc3oc2=O)cc1`, the kinetic solubility was determined as 0.0043 mg/mL (≈ 14 µM).

`Cc1nc2ccccc2c(=O)n1-c1ccc(Br)cn1`: the kinetic solubility was greater than 0.0474 mg/mL.

As to `CC(OC(=O)CC1CCCC1)C(=O)Nc1ccc(Cl)cn1` (configuration not stated), the kinetic solubility was found to be 0.0309 mg/mL (≈ 99.4 µM).

With `Cc1cc2c(cn1)C(CCC#N)(CCC#N)c1ccccc1-2`, the solubility (kinetic) is greater than 0.0431 mg/mL.

Take `COc1ccc(S(=O)(=O)n2cnc(C)c2)cc1`: the kinetic solubility was greater than 0.0378 mg/mL.

As to `O=C(c1cc(-c2ccc(F)cc2)on1)N1CCOCC1`, the kinetic solubility was greater than 0.0414 mg/mL.

Compound `O=C(COc1ccccc1)Nc1ccc(Cl)cn1` registered a solubility (kinetic) of 0.0127 mg/mL (≈ 48.3 µM).

Regarding `COc1cccc(C(=O)Nc2c[nH]c(=O)[nH]c2=O)c1`, the kinetic solubility worked out at 0.0361 mg/mL (≈ 138 µM).

On to `CCC(C)c1ccc(C(CC)NC(=O)C2CCCO2)cc1` (configuration not stated), for which the kinetic solubility was determined as 0.0345 mg/mL (≈ 119 µM).

The compound `CSc1nc(N2CCOCC2)c2c(c1C#N)CC(C(C)C)OC2` (configuration not stated) came in with a solubility (kinetic) of less than 0.0002 mg/mL.

Regarding `Cc1cccc(OCC2Cn3c(nc4c3c(=O)[nH]c(=O)n4C)O2)c1` (configuration not stated), the kinetic solubility turned out to be 0.009 mg/mL (≈ 27.4 µM).

For the compound `Nc1cc(N)nc(SCc2cccc(F)c2)n1`, the solubility (kinetic) amounted to 0.0249 mg/mL (≈ 99.5 µM).

The compound `CC1CC(C)CN(C(=O)COC(=O)c2ccc(S(=O)(=O)N(C)c3ccccc3)cc2)C1` (configuration not stated) gave a kinetic solubility of 0.0078 mg/mL (≈ 17.5 µM).

For the compound `Cc1c(OCC(F)(F)F)ccnc1CS(=O)c1nc2ccccc2[nH]1` (configuration not stated), the solubility (kinetic) is greater than 0.0554 mg/mL.

As to `CCOC(=O)c1cc(C)sc1/N=C/C1C(=O)NC(=S)NC1=O`, the kinetic solubility stood at 0.0047 mg/mL (≈ 13.8 µM).

Compound `CCN1CCN(CCC(=O)Nc2ccc(F)c(F)c2)CC1` yielded a kinetic solubility greater than 0.0446 mg/mL.

Consider `COn1c(C)c(C)c2c3nonc3ccc21`, for which the solubility (kinetic) worked out at 0.0089 mg/mL (≈ 41 µM).

Turning to `Cn1c(C2=C(O)CN(Cc3ccccc3)C2=N)nc2ccccc21`, the kinetic solubility is greater than 0.0478 mg/mL.

For the compound `C/C(=C\C(=O)c1sccc1Cl)N(C)C`, the solubility (kinetic) is greater than 0.0345 mg/mL.

(Values after PubChem BioAssay AID1996.)
